Data: ChEMBL document CHEMBL5335818, “A MassQL-Integrated Molecular Networking Approach for the Discovery and Substructure Annotation of Bioactive Cyclic Peptides” (J Nat Prod, 2024)
Activity calls are given as the source filed them. The rule behind the calls is not given here.

What was measured:
[1] = molecular target: Vasopressin V1a receptor (Homo sapiens) (UniProt P37288); assay: Antagonist activity at V1A receptor (unknown origin) assessed as reduction in AVP-induced V1A receptor signaling; format: functional
Vasopressin V1a receptor (Homo sapiens), sequence (P37288 whole entry, looked up): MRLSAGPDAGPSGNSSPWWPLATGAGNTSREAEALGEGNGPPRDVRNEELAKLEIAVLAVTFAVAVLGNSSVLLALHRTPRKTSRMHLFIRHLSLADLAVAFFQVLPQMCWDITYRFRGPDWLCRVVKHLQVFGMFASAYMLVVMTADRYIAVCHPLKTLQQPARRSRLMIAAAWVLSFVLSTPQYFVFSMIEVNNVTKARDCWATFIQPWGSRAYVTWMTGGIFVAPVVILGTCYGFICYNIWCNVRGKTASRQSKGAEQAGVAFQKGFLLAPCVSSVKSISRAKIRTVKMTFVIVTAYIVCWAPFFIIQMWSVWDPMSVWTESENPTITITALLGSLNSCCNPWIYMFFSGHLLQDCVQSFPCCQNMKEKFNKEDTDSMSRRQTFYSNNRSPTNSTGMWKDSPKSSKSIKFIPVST

[2] = molecular target: Vasopressin V1a receptor (Homo sapiens) (UniProt P37288); assay: Activation of V1A receptor (unknown origin) mediated signaling transfected in HEK293 cells at 0.1 to 31.6 uM incubated for 16 mins by label-free DMR assay; format: functional, cell-based; conditions: dose 0.1-31.6 µM
[3] = molecular target: Muscarinic acetylcholine receptor M3 (Homo sapiens) (UniProt P20309); assay: Antagonist activity at endogenous muscarinic M3 receptor in HEK293 cells assessed as inhibition of carbachol-induced cell activation at 1 to 31.6 uM incubated for 16 mins by label-free DMR assay; format: functional, cell-based; conditions: dose 1-31.6 µM
Muscarinic acetylcholine receptor M3 (Homo sapiens), sequence (P20309 whole entry, looked up): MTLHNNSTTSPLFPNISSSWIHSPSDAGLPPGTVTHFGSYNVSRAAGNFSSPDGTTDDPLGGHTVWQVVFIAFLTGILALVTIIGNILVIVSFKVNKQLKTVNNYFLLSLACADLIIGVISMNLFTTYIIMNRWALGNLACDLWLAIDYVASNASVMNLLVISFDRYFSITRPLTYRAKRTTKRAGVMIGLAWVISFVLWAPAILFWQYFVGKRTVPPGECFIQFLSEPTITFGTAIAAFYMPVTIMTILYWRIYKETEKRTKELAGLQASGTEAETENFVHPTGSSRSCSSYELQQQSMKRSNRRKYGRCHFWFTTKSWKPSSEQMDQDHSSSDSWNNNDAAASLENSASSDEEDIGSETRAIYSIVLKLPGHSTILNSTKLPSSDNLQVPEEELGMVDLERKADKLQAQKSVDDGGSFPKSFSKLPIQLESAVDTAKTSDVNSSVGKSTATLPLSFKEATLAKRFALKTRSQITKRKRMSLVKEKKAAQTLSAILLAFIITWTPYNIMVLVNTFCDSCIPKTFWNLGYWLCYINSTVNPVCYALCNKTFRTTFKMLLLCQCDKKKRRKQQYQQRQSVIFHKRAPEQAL

[4] = molecular target: Vasopressin V1a receptor (Homo sapiens) (UniProt P37288); assay: Antagonist activity at V1A receptor (unknown origin) transfected in HEK293 cells assessed as inhibition of AVP-induced cell activation at 1 to 31.6 uM incubated for 16 mins by label-free DMR assay; format: functional, cell-based; conditions: filed as antagonist, dose 1-31.6 µM
[5] = molecular target: Vasopressin V1a receptor (Homo sapiens) (UniProt P37288); assay: Activation of endogenous V1A receptor signaling in HEK293 cells at 0.1 to 31.6 uM incubated for 16 mins by label-free DMR assay; format: functional, cell-based; conditions: dose 0.1-31.6 µM
[6] = molecular target: Vasopressin V1a receptor (Homo sapiens) (UniProt P37288); assay: Antagonist activity at V1A receptor (unknown origin) transfected in HEK293 cells assessed as inhibition of AVP-induced cell activation at 31.6 uM incubated for 16 mins by label-free DMR assay relative to control; format: functional, cell-based

| SMILES | Activity [1] | Activity ([1]; filed as antagonist) | Activity [2] | Activity [3] | Activity [4] | Activity [5] | inhibition [6] |
| --- | --- | --- | --- | --- | --- | --- | --- |
| CC(C)C[C@@H]1NC(=O)[C@H](Cc2ccoc2)N(C)C(=O)[C@H](C(C)C)NC(=O)[C@H](Cc2ccoc2)N(C)C1=O | inactive | – | – | – | – | – | – |
| CC(C)[C@@H]1NC(=O)[C@@H]2CCCN2C(=O)[C@H](Cc2ccoc2)NC(=O)[C@H](Cc2ccoc2)N(C)C1=O | – | Active | inactive | inactive | Active | inactive | 22% |
| CC(C)C[C@@H]1NC(=O)[C@H](Cc2ccoc2)N(C)C(=O)[C@H](C(C)C)NC(=O)[C@@H]2CCCN2C1=O | inactive | – | – | – | – | – | – |
